Source: ChEMBL document CHEMBL3045837, “Tobacco mosaic virus (TMV) inhibitors from Picrasma quassioides Benn” (J Agric Food Chem, 2009)
Each block holds one compound with its values, some of them ahead of it. Calls of active or inactive are those of the source. No cut-off for these calls is given here.

Assays:
Tobacco mosaic virus [1] = assay: Antiviral activity against Tobacco mosaic virus U1 (TMV) infected Nicotiana tabacum cv. K326 leaves assessed as inhibition of viral replication in presence of 25 ug/mL quassinoid nigakilactone B measured 48 hr after compound exposure by leaf-disk method; assay type: functional, organism-based; conditions: U1, 48 h
Tobacco mosaic virus [2] = assay: Antiviral activity against Tobacco mosaic virus U1 (TMV) infected Nicotiana tabacum cv. K326 leaves assessed as inhibition of viral replication measured 48 hr after compound exposure by leaf-disk method; assay type: functional, organism-based; conditions: U1, 48 h
Tobacco mosaic virus [3] = assay: Antiviral activity against Tobacco mosaic virus U1 (TMV) infected Nicotiana glutinosa leaves assessed as inhibition of viral infection at 50 ug/mL using compound pre-treated virus suspension measured 5 to 6 days after compound exposure; assay type: functional; conditions: U1, in Nicotiana glutinosa
Tobacco mosaic virus [4] = assay: Antiviral activity against Tobacco mosaic virus U1 (TMV) infected Nicotiana glutinosa leaves assessed as inhibition of viral infection at 50 ug/mL using compound pre-treated virus suspension in presence of 25 ug/mL quassinoid nigakilactone B measured 5 to 6 days after compound exposure; assay type: functional
Tobacco mosaic virus [5] = assay: Antiviral activity against Tobacco mosaic virus U1 (TMV) infected Nicotiana tabacum cv. K326 leaves assessed as inhibition of viral replication at 50 ug/mL in presence of 25 ug/mL quassinoid nigakilactone B measured 48 hr after compound exposure by leaf-disk method; assay type: functional
Tobacco mosaic virus [6] = assay: Antiviral activity against Tobacco mosaic virus U1 (TMV) infected Nicotiana tabacum cv. K326 leaves assessed as inhibition of viral replication at 50 ug/mL measured 48 hr after compound exposure by leaf-disk method; assay type: functional; conditions: U1, 48 h
Tobacco mosaic virus [7] = assay: Antiviral activity against Tobacco mosaic virus U1 (TMV) infected Nicotiana glutinosa leaves assessed as inhibition of viral replication at 50 ug/mL in presence of 25 ug/mL quassinoid nigakilactone B measured 48 hr after compound exposure by half leaf method; assay type: functional
Tobacco mosaic virus [8] = assay: Antiviral activity against Tobacco mosaic virus U1 (TMV) infected Nicotiana glutinosa leaves assessed as inhibition of viral replication at 50 ug/mL measured 48 hr after compound exposure by half leaf method; assay type: functional; conditions: U1, in Nicotiana glutinosa
Tobacco mosaic virus [9] = assay: Inhibition of Tobacco mosaic virus U1 (TMV) coat protein accumulation using virus infected Nicotiana tabacum cv. K326 leaves at 50 ug/mL by SDS-PAGE and Western blotting method; assay type: functional, organism-based
Tobacco mosaic virus [10] = assay: Inhibition of Tobacco mosaic virus U1 (TMV) coat protein accumulation using virus infected Nicotiana tabacum cv. K326 leaves by SDS-PAGE and Western blotting method; assay type: functional, organism-based

EC50 (Tobacco mosaic virus [1]): 78 µM
EC50 (Tobacco mosaic virus [2]): 131 µM
SMILES: COc1cccc2c1[nH]c1c(CCC(=O)c3nccc4c3[nH]c3ccccc34)ncc(OC)c12
inhibition at 50 µg/mL (Tobacco mosaic virus [3]): 45.5%
inhibition (INH) (Tobacco mosaic virus [4]): 68.3%
inhibition (INH) (Tobacco mosaic virus [5]): 64.8%
inhibition at 50 µg/mL (Tobacco mosaic virus [6]): 28.9%
inhibition (INH) (Tobacco mosaic virus [7]): 52.4%
inhibition at 50 µg/mL (Tobacco mosaic virus [8]): 39.4%

SMILES: COc1c(O)c2nccc3c4ccccc4n(c1=O)c23 [PICRASIDINE Q]
inhibition at 50 µg/mL (Tobacco mosaic virus [3]): 42.9%
inhibition (INH) (Tobacco mosaic virus [4]): 66.7%
inhibition (INH) (Tobacco mosaic virus [5]): 52.6%
inhibition at 50 µg/mL (Tobacco mosaic virus [6]): 25.6%
inhibition (INH) (Tobacco mosaic virus [7]): 53.8%
inhibition at 50 µg/mL (Tobacco mosaic virus [8]): 35.7%

SMILES: C=Cc1ncc(OC)c2c1[nH]c1c(OC)cccc12
inhibition at 50 µg/mL (Tobacco mosaic virus [3]): 53.3%
inhibition (INH) (Tobacco mosaic virus [4]): 58.3%
inhibition (INH) (Tobacco mosaic virus [5]): 63%
inhibition at 50 µg/mL (Tobacco mosaic virus [6]): 39.7%
inhibition (INH) (Tobacco mosaic virus [7]): 47.1%
inhibition at 50 µg/mL (Tobacco mosaic virus [8]): 38.5%

SMILES: COC1=C[C@@H](C)[C@@H]2C[C@H]3OC(=O)C[C@H]4[C@@H](C)[C@H](OC)[C@@H](O)[C@H]([C@@]2(C)C1=O)[C@@]34C [NIGAKILACTONE B]
inhibition at 50 µg/mL (Tobacco mosaic virus [3]): 10%
inhibition at 50 µg/mL (Tobacco mosaic virus [6]): 3.2%
inhibition at 50 µg/mL (Tobacco mosaic virus [8]): 6.7%
inhibition (Tobacco mosaic virus [9]): inactive

EC50 (Tobacco mosaic virus [1]): 130 µM
EC50 (Tobacco mosaic virus [2]): 189 µM
SMILES: COc1c(OC)c2nccc3c4ccccc4n(c1=O)c23 [4,5-DIMETHOXYCANTHIN-6-ONE]
inhibition at 50 µg/mL (Tobacco mosaic virus [3]): 58.3%
inhibition (INH) (Tobacco mosaic virus [4]): 61.1%
inhibition (INH) (Tobacco mosaic virus [5]): 59%
inhibition at 50 µg/mL (Tobacco mosaic virus [6]): 42.6%
inhibition (INH) (Tobacco mosaic virus [7]): 43.8%
inhibition at 50 µg/mL (Tobacco mosaic virus [8]): 33.3%

EC50 (Tobacco mosaic virus [1]): 183 µM
EC50 (Tobacco mosaic virus [2]): 257 µM
SMILES: COc1cccc2c3c([nH]c12)C(=O)NC(=O)C3=O
inhibition at 50 µg/mL (Tobacco mosaic virus [3]): 50%
inhibition (INH) (Tobacco mosaic virus [4]): 55.9%
inhibition (INH) (Tobacco mosaic virus [5]): 59.8%
inhibition at 50 µg/mL (Tobacco mosaic virus [6]): 35.1%
inhibition (INH) (Tobacco mosaic virus [7]): 47.3%
inhibition at 50 µg/mL (Tobacco mosaic virus [8]): 39.5%

SMILES: CNCC(=O)N[C@@H](CO)C(=O)N[C@H]1[C@H](O)[C@@H](O)[C@H](n2ccc(N)nc2=O)O[C@@H]1C(N)=O [NINGNANMYCIN]
EC50 (Tobacco mosaic virus [1]): 129 µM
EC50 (Tobacco mosaic virus [2]): 135 µM
inhibition at 50 µg/mL (Tobacco mosaic virus [3]): 60%
inhibition (INH) (Tobacco mosaic virus [4]): 55.6%
inhibition (INH) (Tobacco mosaic virus [5]): 52.6%
inhibition at 50 µg/mL (Tobacco mosaic virus [6]): 51%
inhibition (INH) (Tobacco mosaic virus [7]): 53.8%
inhibition at 50 µg/mL (Tobacco mosaic virus [8]): 54.5%

SMILES: CCc1nccc2c1[nH]c1c(OC)cccc12
inhibition at 50 µg/mL (Tobacco mosaic virus [3]): 45.5%
inhibition (INH) (Tobacco mosaic virus [4]): 50%
inhibition (INH) (Tobacco mosaic virus [5]): 48.4%
inhibition at 50 µg/mL (Tobacco mosaic virus [6]): 20.9%
inhibition (INH) (Tobacco mosaic virus [7]): 36.4%
inhibition at 50 µg/mL (Tobacco mosaic virus [8]): 25%

SMILES: COC(=O)c1ncc(O)c2c1[nH]c1ccccc12
inhibition at 50 µg/mL (Tobacco mosaic virus [3]): 60%
inhibition (INH) (Tobacco mosaic virus [4]): 69.2%
inhibition (INH) (Tobacco mosaic virus [5]): 62.3%
inhibition at 50 µg/mL (Tobacco mosaic virus [6]): 45.7%
inhibition (INH) (Tobacco mosaic virus [7]): 55.6%
inhibition at 50 µg/mL (Tobacco mosaic virus [8]): 41.7%

EC50 (Tobacco mosaic virus [1]): 115 µM
EC50 (Tobacco mosaic virus [2]): 179 µM
SMILES: COC(=O)c1nccc2c1[nH]c1ccccc12
inhibition at 50 µg/mL (Tobacco mosaic virus [3]): 71.4%
inhibition (INH) (Tobacco mosaic virus [4]): 73.3%
inhibition (INH) (Tobacco mosaic virus [5]): 71.9%
inhibition at 50 µg/mL (Tobacco mosaic virus [6]): 60.4%
inhibition (INH) (Tobacco mosaic virus [7]): 68.4%
inhibition at 50 µg/mL (Tobacco mosaic virus [8]): 47.4%
inhibition (Tobacco mosaic virus [10]): Dose-dependent effect

SMILES: COc1cc2nccc3c4ccccc4n(c1=O)c23 [5-METHOXYCANTHINONE]
inhibition at 50 µg/mL (Tobacco mosaic virus [3]): 36.4%
inhibition (INH) (Tobacco mosaic virus [4]): 58.3%
inhibition (INH) (Tobacco mosaic virus [5]): 45.7%
inhibition at 50 µg/mL (Tobacco mosaic virus [6]): 27.5%
inhibition (INH) (Tobacco mosaic virus [7]): 50%
inhibition at 50 µg/mL (Tobacco mosaic virus [8]): 40%

SMILES: O=C1NC(=O)c2[nH]c3ccccc3c2C1=O
inhibition at 50 µg/mL (Tobacco mosaic virus [3]): 44.4%
inhibition (INH) (Tobacco mosaic virus [4]): 52.1%
inhibition (INH) (Tobacco mosaic virus [5]): 35.8%
inhibition at 50 µg/mL (Tobacco mosaic virus [6]): 29.5%
inhibition (INH) (Tobacco mosaic virus [7]): 33.3%
inhibition at 50 µg/mL (Tobacco mosaic virus [8]): 29.4%
